Like-named read-outs stand apart in the source and are kept apart here.

The source of these data is article PMC9303812, “Asymmetrically Substituted m‐Terphenyl Phosphates Inhibit the Transcription Factor STAT5a” (Chembiochem, 2021).

Experiment [1] concerns the target T1, STAT6 (Homo sapiens, UniProt P42226).
T1 sequence (P42226 1-847): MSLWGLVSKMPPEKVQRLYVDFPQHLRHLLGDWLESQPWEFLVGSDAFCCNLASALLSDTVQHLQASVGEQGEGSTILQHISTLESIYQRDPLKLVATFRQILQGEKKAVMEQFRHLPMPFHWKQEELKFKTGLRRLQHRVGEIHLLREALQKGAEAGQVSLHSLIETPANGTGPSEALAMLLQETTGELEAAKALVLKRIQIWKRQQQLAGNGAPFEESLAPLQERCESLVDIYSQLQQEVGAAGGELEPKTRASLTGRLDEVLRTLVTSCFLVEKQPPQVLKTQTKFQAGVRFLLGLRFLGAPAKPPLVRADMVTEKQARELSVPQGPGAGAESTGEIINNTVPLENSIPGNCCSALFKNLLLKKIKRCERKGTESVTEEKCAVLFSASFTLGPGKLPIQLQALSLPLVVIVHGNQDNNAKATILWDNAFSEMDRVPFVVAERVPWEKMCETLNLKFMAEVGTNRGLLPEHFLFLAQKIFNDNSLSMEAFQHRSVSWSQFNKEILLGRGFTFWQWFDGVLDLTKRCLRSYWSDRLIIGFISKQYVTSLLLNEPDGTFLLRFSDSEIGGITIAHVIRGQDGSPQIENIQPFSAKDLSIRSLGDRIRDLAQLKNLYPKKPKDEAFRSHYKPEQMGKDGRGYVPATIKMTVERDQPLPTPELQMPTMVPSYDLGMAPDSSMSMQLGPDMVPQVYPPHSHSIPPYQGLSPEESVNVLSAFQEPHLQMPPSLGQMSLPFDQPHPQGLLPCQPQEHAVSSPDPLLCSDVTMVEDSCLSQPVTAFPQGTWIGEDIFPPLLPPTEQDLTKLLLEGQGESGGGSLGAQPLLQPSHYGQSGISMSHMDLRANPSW
Kind of experiment: Fluorescence polarization (FP) binding assay, STAT6. Here is the method: (§1) Ki values were calculated from IC50 values using the published equation.[2] […]
(§2) Table S2: Activities of 12 against STAT5 proteins in FP assays.
(§3) Fluorescence polarization assays
(§4) Fluorescence polarization assays were essentially carried out as previously described.[1] These assays quantitate to which extent a test compound is able to interfere with binding between a STAT protein and a fluorescein-labeled phosphotyrosine-containing peptide, which is known to bind to the SH2 domain of the respective STAT protein. The following protein […]
(§5) concentrations were used: 100 nM for STAT1, 150 nM for STAT3, 30 nM for STAT4, 180 nM for STAT5a, 90 nM for STAT5b and 105 nM for STAT6. All peptides were used at a concentration of 10 nM. The following peptides were used: 5 -carboxyfluorescein -GpYDKPHVL for STAT1; 5-carboxyfluorescein -GpYLPQTV-NH2 for STAT3; 5-carboxyfluorescein-GpYLPQNID-OH for STAT4; 5-carboxyfluorescein-GpYLVLDKW for STAT5a/b, and 5-carboxyfluorescein-GpYVPWQDLI-OH for STAT6. As a buffer system, 10 mM Tris (pH 8.0), 50 mM NaCl, 1 mM EDTA, 1 mM DTT, 0.1 % Nonidet P-40 substitute, and 2 % DMSO in water was used. All compounds tested were incubated for 1 h with the protein. Subsequently, the fluorescein-labeled peptide was added and the fluorescence polarization was measured with an Infinite F500 plate reader (Tecan) after another hour. IC50 values were converted to Ki-values using the published equation.[2] […]
(§6) 3:2 solution was added . The solution was degassed by applying ultrasonic under vacuum for one minute four times. 14 mg of Pd(PPh3)4 (12 µmol, 5 mol %) were added and the solution was refluxed overnight. After cooling down, the mixture was extracted with ethyl acetate, washed with brine and dried over Na2SO4. The crude product was purified by flash column […]
(§7) Method 2: Synthesis of dibenzylphosphate esters
(§8) The corresponding phenol (1 eq.) was dissolved in 10 ml/mmol MeCN or DMF and CCl4 (5 eq.), DIPEA (2 eq.) and DMAP (0.1 eq.) were added. After cooling down to 0°C, dibenzyl phosphite (1.5 eq.) was added dropwise and stirring was continued at the same temperature. […]

Experiment [2] deals with T2, STAT4 (Homo sapiens, UniProt Q14765).
T2 sequence (Q14765 1-748): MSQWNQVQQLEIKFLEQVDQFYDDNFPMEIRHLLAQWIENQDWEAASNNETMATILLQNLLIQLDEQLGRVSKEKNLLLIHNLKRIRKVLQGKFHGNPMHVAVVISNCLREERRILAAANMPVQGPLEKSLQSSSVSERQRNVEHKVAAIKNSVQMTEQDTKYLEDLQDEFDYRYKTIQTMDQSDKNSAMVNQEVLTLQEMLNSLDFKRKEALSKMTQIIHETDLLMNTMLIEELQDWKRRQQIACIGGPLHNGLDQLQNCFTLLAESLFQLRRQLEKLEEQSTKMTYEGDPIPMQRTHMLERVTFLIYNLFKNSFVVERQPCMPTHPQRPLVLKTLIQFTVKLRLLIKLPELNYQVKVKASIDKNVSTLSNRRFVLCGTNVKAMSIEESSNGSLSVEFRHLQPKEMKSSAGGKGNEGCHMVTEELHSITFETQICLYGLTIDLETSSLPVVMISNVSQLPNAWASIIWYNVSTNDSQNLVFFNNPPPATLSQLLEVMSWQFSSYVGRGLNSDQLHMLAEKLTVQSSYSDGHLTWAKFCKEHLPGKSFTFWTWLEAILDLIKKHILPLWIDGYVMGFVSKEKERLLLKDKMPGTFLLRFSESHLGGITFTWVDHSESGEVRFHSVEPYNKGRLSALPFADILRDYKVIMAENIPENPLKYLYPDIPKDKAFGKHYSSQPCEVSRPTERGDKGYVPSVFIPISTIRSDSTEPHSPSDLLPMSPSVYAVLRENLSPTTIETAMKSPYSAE
Briefly: Fluorescence polarization (FP) binding assay, STAT4. Here is the method: as §1, §2, §3, §4, §5, §6, §7, §8
On the technique in general: Polarisation of emitted light reports the rotation of a fluorescent probe.

Take `COc1cc(-c2cc(OP(=O)(O)O)cc(-c3cc(F)c(F)c(F)c3)c2)cc(OC)c1OC` [6 b]: the inhibition at 200 µM in experiment [1] (read-out: STAT6 inhibition at 200 μM) came out at 39 ± 1%. Besides, in experiment [2], the inhibitory constant (Ki) was 39.7 ± 3 µM.
Take `COc1cc(-c2cc(-c3cc(F)c(F)c(F)c3)cc(C(F)P(=O)(O)O)c2)cc(OC)c1OC` (stereo not drawn) [compound 12]: the IC50 was 144 ± 2.8 µM in experiment [1] (FP assay) and 99.3 ± 8 µM in experiment [2] (FP assay). The Ki is 71.5 ± 1.4 µM in experiment [1] (FP assay, Ki calculated from IC50 (n=3)) and 49.2 ± 4 µM in experiment [2] (FP assay, Ki calculated from IC50 (n=3), read-out: STAT4 Ki).

For orientation: inhibition means the share of the control response that was lost under treatment. Broadly, the Ki is the dissociation constant of the complex between target and ligand, obtained from inhibition or displacement. What is called IC50 is the concentration that gives 50% inhibition.
